Experiments:
[1] = target: Casein kinase I isoform gamma-1 (Homo sapiens) (UniProt Q9HCP0); conditions: Compound concentration 1000.0 nM
[2] = target: Inhibitor of nuclear factor kappa-B kinase subunit epsilon (Homo sapiens) (UniProt Q14164); conditions: Compound concentration 1000.0 nM
[3] = target: Tyrosine-protein kinase Mer (Homo sapiens) (UniProt Q12866); conditions: Compound concentration 1000.0 nM
[4] = test system: Tyrosine-protein kinase ABL1 (Homo sapiens), P00519 [M351T]; conditions: Compound concentration 1000.0 nM
[5] = target: Serine/threonine-protein kinase PRP4 homolog (Homo sapiens) (UniProt Q13523); conditions: Compound concentration 1000.0 nM
[6] = target: Epithelial discoidin domain-containing receptor 1 (Homo sapiens) (UniProt Q08345); conditions: Compound concentration 1000.0 nM
Chain of Epithelial discoidin domain-containing receptor 1 (Homo sapiens) (Q08345 whole entry, the tested form may be a part): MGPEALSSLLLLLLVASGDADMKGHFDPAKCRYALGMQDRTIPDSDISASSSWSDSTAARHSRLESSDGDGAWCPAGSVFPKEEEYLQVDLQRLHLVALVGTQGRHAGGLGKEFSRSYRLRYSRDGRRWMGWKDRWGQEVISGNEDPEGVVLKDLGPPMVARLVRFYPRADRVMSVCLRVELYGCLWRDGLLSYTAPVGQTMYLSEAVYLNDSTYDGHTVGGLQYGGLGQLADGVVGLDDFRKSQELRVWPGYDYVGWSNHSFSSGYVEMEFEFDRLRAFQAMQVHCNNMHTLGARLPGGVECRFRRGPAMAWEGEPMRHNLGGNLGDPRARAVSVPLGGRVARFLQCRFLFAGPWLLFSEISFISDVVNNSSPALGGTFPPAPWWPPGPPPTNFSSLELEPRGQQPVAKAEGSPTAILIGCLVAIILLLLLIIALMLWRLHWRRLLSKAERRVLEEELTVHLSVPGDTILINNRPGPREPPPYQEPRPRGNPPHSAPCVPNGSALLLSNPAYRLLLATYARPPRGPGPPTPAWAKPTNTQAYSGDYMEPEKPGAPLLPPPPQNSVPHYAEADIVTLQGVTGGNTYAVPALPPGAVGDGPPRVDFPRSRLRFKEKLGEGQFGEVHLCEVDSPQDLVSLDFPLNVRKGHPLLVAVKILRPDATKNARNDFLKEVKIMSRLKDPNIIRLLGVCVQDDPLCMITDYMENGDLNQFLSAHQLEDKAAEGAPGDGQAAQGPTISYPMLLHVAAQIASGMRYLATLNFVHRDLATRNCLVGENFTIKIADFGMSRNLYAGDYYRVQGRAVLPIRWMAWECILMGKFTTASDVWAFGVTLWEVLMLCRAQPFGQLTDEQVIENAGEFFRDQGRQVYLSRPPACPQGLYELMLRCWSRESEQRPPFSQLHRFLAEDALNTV

[7] = target: Serine/threonine-protein kinase PLK3 (Homo sapiens) (UniProt Q9H4B4); conditions: Compound concentration 1000.0 nM
[8] = target: Tyrosine-protein kinase FRK (Homo sapiens) (UniProt P42685); conditions: Compound concentration 1000.0 nM
[9] = target: Sodium-dependent noradrenaline transporter (Homo sapiens) (UniProt P23975); test: norepinephrine transporter (h) Eurofins-Cerep binding assay; conditions: filed as antagonist, Compound concentration 10.0 uM
[10] = target: Serine/threonine-protein kinase Sgk1 (Homo sapiens) (UniProt O00141); conditions: Compound concentration 1000.0 nM
[11] = target: Leukocyte tyrosine kinase receptor (Homo sapiens) (UniProt P29376); conditions: Compound concentration 1000.0 nM
[12] = target: voltage-gated L-type Ca2+ channel (dihydropyridine site) (Rattus norvegicus, UniProt P22002+P27732+Q02485); test: Ca2+ channel (L, dihydropyridine site) Eurofins-Cerep binding assay; parameters: incubation time 90 min, incubation temperature RT, ligand concentration 0.1 nM; conditions: rat cerebral cortex (source of protein), probe [3H]nitrendipine (0.1 nM), compound concentration 10 uM, read-out: % Inhibition of Control Specific Binding (Mean n=2)
[13] = target: Cyclin-dependent kinase 17 (Homo sapiens) (UniProt Q00537); conditions: Compound concentration 1000.0 nM
[14] = target: Atypical kinase COQ8B, mitochondrial (Homo sapiens) (UniProt Q96D53); conditions: Compound concentration 1000.0 nM
[15] = target: MAO-B (amine oxidase [flavin-containing] B) (Homo sapiens, UniProt P27338); test: MAO-B (h) recombinant enzyme Eurofins-Cerep enzyme and uptake assay; parameters: incubation time 60 min, incubation temperature 37°C, substrate/stimulus/tracer D-Luciferin derivative (4 µM); conditions: probe D-Luciferin derivative (4 µM), compound concentration 10 uM, read-out: % Inhibition of Control Values (Mean n=2)
[16] = target: Calcium/calmodulin-dependent protein kinase type 1 (Homo sapiens) (UniProt Q14012); conditions: Compound concentration 1000.0 nM
[17] = target: Dual specificity mitogen-activated protein kinase kinase 7 (Homo sapiens) (UniProt O14733); conditions: Compound concentration 1000.0 nM
[18] = target: Mitogen-activated protein kinase 7 (Homo sapiens) (UniProt Q13164); conditions: Compound concentration 1000.0 nM
[19] = target: 3-phosphoinositide-dependent protein kinase 1 (Homo sapiens) (UniProt O15530); conditions: Compound concentration 1000.0 nM
[20] = target: Serine/threonine-protein kinase SIK1 (Homo sapiens) (UniProt P57059); conditions: Compound concentration 1000.0 nM
[21] = target: Serine/threonine-protein kinase WNK4 (Homo sapiens) (UniProt Q96J92); conditions: Compound concentration 1000.0 nM
Chain of Serine/threonine-protein kinase WNK4 (Homo sapiens) (Q96J92 whole entry): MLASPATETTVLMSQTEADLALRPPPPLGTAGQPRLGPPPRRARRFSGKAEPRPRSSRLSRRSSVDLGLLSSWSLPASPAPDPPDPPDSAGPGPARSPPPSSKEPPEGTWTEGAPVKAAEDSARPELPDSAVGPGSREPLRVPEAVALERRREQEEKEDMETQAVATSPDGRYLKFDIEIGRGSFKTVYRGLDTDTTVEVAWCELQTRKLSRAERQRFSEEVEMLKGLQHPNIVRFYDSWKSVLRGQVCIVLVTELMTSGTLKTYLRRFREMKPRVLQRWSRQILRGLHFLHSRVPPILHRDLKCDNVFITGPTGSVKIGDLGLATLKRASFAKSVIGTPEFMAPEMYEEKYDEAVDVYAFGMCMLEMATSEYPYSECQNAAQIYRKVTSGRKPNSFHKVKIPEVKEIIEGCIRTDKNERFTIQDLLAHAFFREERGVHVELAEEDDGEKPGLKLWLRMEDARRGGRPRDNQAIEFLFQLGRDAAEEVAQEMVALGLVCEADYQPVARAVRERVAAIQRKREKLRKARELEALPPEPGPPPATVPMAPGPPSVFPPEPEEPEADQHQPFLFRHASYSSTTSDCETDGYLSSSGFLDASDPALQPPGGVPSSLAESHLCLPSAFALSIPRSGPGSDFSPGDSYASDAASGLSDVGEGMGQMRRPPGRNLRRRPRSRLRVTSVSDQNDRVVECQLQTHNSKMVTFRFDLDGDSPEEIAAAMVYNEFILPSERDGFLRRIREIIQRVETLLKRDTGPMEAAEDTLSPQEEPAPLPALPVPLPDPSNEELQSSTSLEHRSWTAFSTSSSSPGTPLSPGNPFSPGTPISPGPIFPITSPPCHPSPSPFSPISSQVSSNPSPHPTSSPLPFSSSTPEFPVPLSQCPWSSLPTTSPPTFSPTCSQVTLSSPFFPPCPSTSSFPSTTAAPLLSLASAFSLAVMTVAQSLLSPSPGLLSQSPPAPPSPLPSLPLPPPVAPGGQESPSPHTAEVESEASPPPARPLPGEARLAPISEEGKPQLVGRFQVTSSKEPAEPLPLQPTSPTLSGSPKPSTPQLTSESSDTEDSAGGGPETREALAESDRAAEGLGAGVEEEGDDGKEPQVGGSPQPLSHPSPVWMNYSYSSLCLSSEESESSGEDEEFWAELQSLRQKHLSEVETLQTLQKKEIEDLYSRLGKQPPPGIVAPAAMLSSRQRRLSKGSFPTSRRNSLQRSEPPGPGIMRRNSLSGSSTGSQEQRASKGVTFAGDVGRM

[22] = target: Insulin receptor (Homo sapiens) (UniProt P06213); conditions: Compound concentration 1000.0 nM
[23] = test system: Receptor-type tyrosine-protein kinase FLT3 (Homo sapiens), P36888 [R834Q]; conditions: Compound concentration 1000.0 nM
[24] = target: MAO-A (amine oxidase [flavin-containing] A) (Rattus norvegicus, UniProt P21396); test: MAO-A Eurofins-Cerep binding assay; parameters: incubation time 60 min, incubation temperature 37°C, ligand concentration 10 nM; conditions: rat cerebral cortex (source of protein), probe [3H]Ro 41-1049 (10 nM), compound concentration 10 uM, read-out: % Inhibition of Control Specific Binding (Mean n=2)
[25] = target: 5-hydroxytryptamine receptor 4 (Homo sapiens) (UniProt Q13639); test: 5-HT4 e (h) Eurofins-Cerep binding assay; parameters: ligand concentration 0.3 nM; conditions: filed as antagonist, Compound concentration 10.0 uM
[26] = target: Protein kinase C theta type (Homo sapiens) (UniProt Q04759); conditions: Compound concentration 1000.0 nM
[27] = target: Serine/threonine-protein kinase ULK1 (Homo sapiens) (UniProt O75385); conditions: Compound concentration 1000.0 nM
[28] = target: Ribosomal protein S6 kinase alpha-5 (Homo sapiens) (UniProt O75582); conditions: Compound concentration 1000.0 nM
Rattus norvegicus = species on record: Rattus norvegicus; test: SKCa channel Eurofins-Cerep binding assay; parameters: ligand concentration 0.007 nM; conditions: filed as antagonist, Compound concentration 10.0 uM
[29] = target: Serine/threonine-protein kinase Chk2 (Homo sapiens) (UniProt O96017); conditions: Compound concentration 1000.0 nM
Chain of Serine/threonine-protein kinase Chk2 (Homo sapiens) (O96017 whole entry): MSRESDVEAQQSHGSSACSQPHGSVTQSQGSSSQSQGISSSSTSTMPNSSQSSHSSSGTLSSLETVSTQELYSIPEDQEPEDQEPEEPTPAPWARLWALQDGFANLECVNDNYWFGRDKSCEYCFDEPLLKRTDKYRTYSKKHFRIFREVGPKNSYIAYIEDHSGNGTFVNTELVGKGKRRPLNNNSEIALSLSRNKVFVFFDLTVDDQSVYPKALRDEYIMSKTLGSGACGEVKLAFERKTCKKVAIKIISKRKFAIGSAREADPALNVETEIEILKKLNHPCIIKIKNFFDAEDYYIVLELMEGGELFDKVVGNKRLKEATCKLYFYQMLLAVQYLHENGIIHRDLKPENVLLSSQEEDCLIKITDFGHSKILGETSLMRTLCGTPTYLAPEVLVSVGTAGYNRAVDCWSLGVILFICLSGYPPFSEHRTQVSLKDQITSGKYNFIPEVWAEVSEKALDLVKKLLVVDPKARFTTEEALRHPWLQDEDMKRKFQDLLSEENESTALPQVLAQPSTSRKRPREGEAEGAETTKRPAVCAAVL

[30] = test system: Epidermal growth factor receptor (Homo sapiens), P00533 [UNDEFINED MUTATION]; conditions: Compound concentration 1000.0 nM
[31] = target: Cyclin-dependent kinase-like 5 (Homo sapiens) (UniProt O76039); conditions: Compound concentration 1000.0 nM
[32] = target: Rhodopsin kinase GRK1 (Homo sapiens) (UniProt Q15835); conditions: Compound concentration 1000.0 nM
[33] = target: Serine/threonine-protein kinase PAK 3 (Homo sapiens) (UniProt O75914); conditions: Compound concentration 1000.0 nM
[34] = target: Serine/threonine-protein kinase WNK2 (Homo sapiens) (UniProt Q9Y3S1); conditions: Compound concentration 1000.0 nM
[35] = target: Tyrosine-protein kinase Tec (Homo sapiens) (UniProt P42680); conditions: Compound concentration 1000.0 nM
[36] = target: Serine/threonine-protein kinase Chk1 (Homo sapiens) (UniProt O14757); conditions: Compound concentration 1000.0 nM
[37] = target: Ribosomal protein S6 kinase alpha-4 (Homo sapiens) (UniProt O75676); conditions: Compound concentration 1000.0 nM
Chain of Ribosomal protein S6 kinase alpha-4 (Homo sapiens) (O75676 whole entry, looked up): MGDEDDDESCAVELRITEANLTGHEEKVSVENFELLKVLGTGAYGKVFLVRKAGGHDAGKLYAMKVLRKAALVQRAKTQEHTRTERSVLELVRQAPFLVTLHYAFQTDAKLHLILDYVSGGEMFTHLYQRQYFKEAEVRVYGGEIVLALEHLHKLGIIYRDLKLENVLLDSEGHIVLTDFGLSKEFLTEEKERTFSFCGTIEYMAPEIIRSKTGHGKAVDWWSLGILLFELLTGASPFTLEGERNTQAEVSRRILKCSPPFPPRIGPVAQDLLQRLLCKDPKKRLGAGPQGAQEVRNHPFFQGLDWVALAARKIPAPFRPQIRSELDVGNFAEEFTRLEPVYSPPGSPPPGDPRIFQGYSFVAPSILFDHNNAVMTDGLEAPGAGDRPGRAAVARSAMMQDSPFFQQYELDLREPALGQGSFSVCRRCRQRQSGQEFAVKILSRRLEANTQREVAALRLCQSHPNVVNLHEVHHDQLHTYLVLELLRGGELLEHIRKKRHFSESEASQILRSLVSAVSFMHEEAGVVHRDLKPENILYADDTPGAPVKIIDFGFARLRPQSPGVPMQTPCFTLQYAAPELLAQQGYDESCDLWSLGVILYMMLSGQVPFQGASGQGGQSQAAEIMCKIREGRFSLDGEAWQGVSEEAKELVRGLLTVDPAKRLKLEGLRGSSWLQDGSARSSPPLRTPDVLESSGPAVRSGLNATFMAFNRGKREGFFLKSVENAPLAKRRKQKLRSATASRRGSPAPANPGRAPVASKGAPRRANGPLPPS

[38] = target: RAC-alpha serine/threonine-protein kinase (Homo sapiens) (UniProt P31749); conditions: Compound concentration 1000.0 nM
[39] = target: Myotonin-protein kinase (Homo sapiens) (UniProt Q09013); conditions: Compound concentration 1000.0 nM
[40] = target: Ribosomal protein S6 kinase alpha-4 (Homo sapiens) (UniProt O75676); conditions: Compound concentration 1000.0 nM; remark: listed apart in the source
[41] = target: Ephrin type-A receptor 8 (Homo sapiens) (UniProt P29322); conditions: Compound concentration 1000.0 nM
Chain of Ephrin type-A receptor 8 (Homo sapiens) (P29322 whole entry): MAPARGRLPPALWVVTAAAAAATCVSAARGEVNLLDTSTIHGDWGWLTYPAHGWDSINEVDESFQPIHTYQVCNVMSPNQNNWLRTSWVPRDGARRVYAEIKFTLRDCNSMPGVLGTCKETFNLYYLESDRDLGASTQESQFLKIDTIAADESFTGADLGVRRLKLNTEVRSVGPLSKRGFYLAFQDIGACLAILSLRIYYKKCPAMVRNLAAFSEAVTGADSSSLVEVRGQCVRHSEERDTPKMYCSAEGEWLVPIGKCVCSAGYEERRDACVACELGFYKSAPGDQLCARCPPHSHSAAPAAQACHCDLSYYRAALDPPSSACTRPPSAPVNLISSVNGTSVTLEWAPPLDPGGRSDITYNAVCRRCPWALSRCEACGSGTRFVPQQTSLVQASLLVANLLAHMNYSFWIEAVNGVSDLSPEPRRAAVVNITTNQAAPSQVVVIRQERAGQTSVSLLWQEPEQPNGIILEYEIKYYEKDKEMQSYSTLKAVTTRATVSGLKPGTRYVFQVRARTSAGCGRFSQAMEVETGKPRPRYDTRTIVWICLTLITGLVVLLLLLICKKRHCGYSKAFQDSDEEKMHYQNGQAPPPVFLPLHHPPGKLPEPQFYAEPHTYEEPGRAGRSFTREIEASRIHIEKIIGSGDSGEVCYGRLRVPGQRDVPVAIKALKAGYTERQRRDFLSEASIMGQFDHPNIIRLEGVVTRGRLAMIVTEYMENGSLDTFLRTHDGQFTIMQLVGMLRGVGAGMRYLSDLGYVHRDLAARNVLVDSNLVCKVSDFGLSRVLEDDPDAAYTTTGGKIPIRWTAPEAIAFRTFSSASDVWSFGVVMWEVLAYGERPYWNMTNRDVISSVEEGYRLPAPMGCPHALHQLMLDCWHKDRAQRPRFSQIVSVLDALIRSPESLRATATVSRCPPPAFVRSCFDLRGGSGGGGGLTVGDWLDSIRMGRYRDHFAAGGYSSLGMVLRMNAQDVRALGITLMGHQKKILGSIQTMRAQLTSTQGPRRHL

Chain of Casein kinase I isoform gamma-1 (Homo sapiens) (Q9HCP0 whole entry, looked up, canonical isoform): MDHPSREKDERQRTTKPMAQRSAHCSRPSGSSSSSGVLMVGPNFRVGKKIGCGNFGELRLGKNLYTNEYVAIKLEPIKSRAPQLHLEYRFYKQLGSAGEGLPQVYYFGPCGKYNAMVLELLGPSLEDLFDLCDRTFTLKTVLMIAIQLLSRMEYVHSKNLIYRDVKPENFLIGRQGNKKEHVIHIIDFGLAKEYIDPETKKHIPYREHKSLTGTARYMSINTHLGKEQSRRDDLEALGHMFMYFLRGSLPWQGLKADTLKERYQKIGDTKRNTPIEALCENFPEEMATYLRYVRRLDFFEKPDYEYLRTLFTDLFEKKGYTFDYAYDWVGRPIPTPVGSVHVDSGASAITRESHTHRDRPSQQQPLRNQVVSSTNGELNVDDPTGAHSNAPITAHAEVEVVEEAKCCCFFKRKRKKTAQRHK

CCCOc1ccc([C@H]2[C@H](C(=O)O)[C@@H](c3ccc4c(c3)OCO4)CN2CC(=O)Nc2c(CC)cccc2CC)cc1 [A-192621]
residual activity [1]: 100%
residual activity [2]: 68%
residual activity [3]: 87%
residual activity [4]: 69%
residual activity [5]: 82%
residual activity [6]: 100%
residual activity [7]: 83%
residual activity [8]: 100%
% Inhibition of Control Specific Binding (Mean n=2) [9]: 16.2%
residual activity [10]: 63%
residual activity [11]: 100%
inhibition at 90 min, 10 µM [12]: 30.3%
residual activity [13]: 91%
residual activity [14]: 90%
inhibition at 60 min, 10 µM [15]: -12.3%
residual activity [16]: 93%
residual activity [17]: 74%
residual activity [18]: 97%
residual activity [19]: 100%
residual activity [20]: 100%
residual activity [21]: 81%
residual activity [22]: 74%
residual activity [23]: 91%
inhibition at 60 min, 10 µM [24]: 7.9%
% Inhibition of Control Specific Binding (Mean n=2) [25]: -12.4%
residual activity [26]: 81%
residual activity [27]: 68%
residual activity [28]: 89%
% Inhibition of Control Specific Binding (Mean n=2) (Rattus norvegicus): 0.5%
residual activity [29]: 88%
residual activity [30]: 89%
residual activity [31]: 85%
residual activity [32]: 68%
residual activity [33]: 100%
residual activity [34]: 58%
residual activity [35]: 100%
residual activity [36]: 98%
residual activity [37]: 68%
residual activity [38]: 97%
residual activity [39]: 81%
residual activity [40]: 84%
residual activity [41]: 98%

CCCOc1ccc([C@@H]2[C@@H](C(=O)O)[C@H](c3ccc4c(c3)OCO4)CN2CC(=O)Nc2c(CC)cccc2CC)cc1 [A-1806262]
residual activity [1]: 97%
residual activity [2]: 85%
residual activity [3]: 97%
residual activity [4]: 80%
residual activity [5]: 100%
residual activity [6]: 89%
residual activity [7]: 88%
residual activity [8]: 89%
% Inhibition of Control Specific Binding (Mean n=2) [9]: 1.6%
residual activity [10]: 75%
residual activity [11]: 100%
inhibition at 90 min, 10 µM [12]: 27.2%
residual activity [13]: 90%
residual activity [14]: 89%
inhibition at 60 min, 10 µM [15]: -14.5%
residual activity [16]: 100%
residual activity [17]: 91%
residual activity [18]: 93%
residual activity [19]: 100%
residual activity [20]: 100%
residual activity [21]: 80%
residual activity [22]: 89%
residual activity [23]: 100%
inhibition at 60 min, 10 µM [24]: 9.9%
% Inhibition of Control Specific Binding (Mean n=2) [25]: -13.4%
residual activity [26]: 100%
residual activity [27]: 77%
residual activity [28]: 97%
% Inhibition of Control Specific Binding (Mean n=2) (Rattus norvegicus): -2%
residual activity [29]: 98%
residual activity [30]: 66%
residual activity [31]: 83%
residual activity [32]: 100%
residual activity [33]: 77%
residual activity [34]: 88%
residual activity [35]: 96%
residual activity [36]: 86%
residual activity [37]: 90%
residual activity [38]: 100%
residual activity [39]: 86%
residual activity [40]: 97%
residual activity [41]: 97%
